US20170209499A1, “Propolis and Extracts Thereof for the Treatment of Skin Cancers and Improvement of Skin Health” (Manuka Health New Zealand Limited, priority 2014, published 2017)

System: human melanoma cell line A-2058
Test: MTT cell proliferation assay, human melanoma cell line A-2058
Assay type: cell-based
Settings: for Mean OD: MTT Optical Density at 570 nm
Source text: This example describes the in vitro bioassay used for determining the anti-proliferative activity of test compounds and cyclodextrin-encapsulated propolis complexes against human skin cancer cell lines. The present example tests anti-proliferative efficacy against the human melanoma cell line, A-2058. The cyclodextrin-encapsulated propolis complexes tested are those described in Example 1. The NZ propolis was the same propolis used to manufacture the cyclodextrin complexes CD1-CD3. The Brazilian Green propolis was the same propolis used to manufacture the cyclodextrin complex CD4. The test samples were dissolved in 15% Ethanol (EtOH)/HBSS to make a working solution, which was then diluted 10 times to give a final concentration in the cells of 50 μg/ml unless indicated otherwise.
The three human skin cancer cell lines were: • 1) Human Melanoma cell line (A-2058). • 2) Human Epidermoid (Squamous) Carcinoma cell line (A-431). • 3) Human Basal Cell Carcinoma cell line (TE 354.T).
The cell lines were revived from cryostorage and cultured in the presence of the test and reference samples. An MIT assay was then performed on the cultures to determine the effect of the samples on the cell viability and proliferation. The percentage standard error of the mean was assessed and extreme outliers were removed if the SEM%>15. Preliminary statistical significance was assessed with an independent Student t-test at α<0.05 (with and without outliers). The methodology was based on the procedures reported by: • Ahn, N G, Campbell J S (1993). […] Proc Natl Acad Sci. 90: 5143-5147. • Galan-Cobo, A et al (2014). Functional inhibition of aquaporin-3 with a gold-based compound induces blockage of cell proliferation. J Cellul. Physiol. 229: 1787-1801. • Roomi, M W, Kalinovsky, J et al (2013) Effect of a nutrient mixture on matrix metalloproteinase-9 dimers in various human cancer cell lines. Inter 3 Oncol. 44: 936-942. • Huang, H C, Lin, M K et al (2013). Cardenolides and bufadienolide glycosides from Kalanchoe tubiflora and evaluation of cytotoxicity. Planta Medica. 79: 1362-1369. • Tilli, C M L J, Stavast-Kooy, A J W et al (2003). The garlic-derived organosulfur component ajoene decreases basal cell carcinoma tumor size by inducing apoptosis. Arch Dermatol Res. 295: 117-123.
• 1. Human melanoma cell line (A-2058, ATCC CRL11147) was obtained from ATCC, Bethesda, Md., USA. • 2. Human squamous (epidermoid) carcinoma cell line (A-431, ATCC CRL1555) was obtained from ATCC, Bethesda, Md. USA. • 3. Human basal cell carcinoma cell line (TE 354.T, ATCC CRL7762) was obtained from ATCC, Bethesda, Md., USA. • 4. Dulbecco's Modified Eagle's Medium (DMEM) was obtained from GIBCO (12100-038). 10% Foetal Bovine Serum (FBS), 100 U/ml Penicillin and […] Streptomycin were added before use. • 5. Penicillin-streptomycin solution, stored at −20° C. consisting of 10000 units/ml penicillin and 10 mg/ml streptomycin in 0.9% NaCl was obtained from Sigma (#P-0781). • 6. Trypsin-EDTA solution consisting of 0.25% Trypsin/EDTA was obtained from Invitrogen (#15400054). • 7. Phosphate buffered saline (PBS) was prepared in-house. • 8. Hanks Balanced Salt Solution (HBSS), stored at 4° C. was obtained from GIBCO (#14185-052). • 9. Foetal Bovine Serum (FBS) stored at −20° C. was obtained from GIBCO (#10091-148). • 10. MTT Reagent, 100 mg/vial, was obtained from Sigma (M-2128) and then dissolved in PBS at 10 mg/ml and stored at −20° C. A 5 mg/ml MTT solution was prepared in PBS and stored at 4° C. as the working solution. • 11. MU lysis buffer: 10% sodium dodecyl sulphate (SDS)/45% Dimethyl Formamide was prepared by dissolving 20 g SDS in 100 ml of double-distilled water (DDW), and then adding 90 ml of Dimethyl Formamide to the solution. The pH was adjusted to 4.7 by glacial acetic acid, and DDW added up to a final volume of 200 ml. • 12. 5-Fluorouracil (5-FU) was supplied by Sigma (F-6627). Three working solutions were prepared at 19.5 μg/ml. 6.5 μg/ml and 1.95 μg/ml dissolved in 15% Ethanol/HBSS. […]

O=c1[nH]cc(F)c(=O)[nH]1 [5-fluorouracil, reference compound]
Mean OD (A-2058, 0.195 μg/ml): 0.1937 | Mean OD (A-2058, 0.65 μg/ml): 0.1832 | Mean OD (A-2058, 1.95 μg/ml): 0.1847 | inhibition at 0.195 µg/mL (Homo sapiens, A2058, 24 h, A-2058, final conc. 0.195 μg/ml, 24 hr incubation, vs cells only): 3.73% | inhibition at 0.65 µg/mL (Homo sapiens, A2058, 24 h, A-2058, final conc. 0.65 μg/ml, 24 hr incubation, vs cells only): 8.99% | inhibition at 1.95 µg/mL (Homo sapiens, A2058, 24 h, A-2058, final conc. 1.95 μg/ml, 24 hr incubation, vs cells only): 8.25%
